Data published in article PMC12226389, “Icariin interacts with IGFBP3 to alleviate diabetic cataract through PI3K/AKT signaling pathway” (iScience, 2025).

Target: T1, IGFBP3 (Homo sapiens, UniProt P17936)
T1 construct: protein immobilised on CM5 chip
Experiment: SPR (Biacore T200, CM5 chip, immobilised IGFBP3)
Format: binding

T1 sequence (P17936 28-291): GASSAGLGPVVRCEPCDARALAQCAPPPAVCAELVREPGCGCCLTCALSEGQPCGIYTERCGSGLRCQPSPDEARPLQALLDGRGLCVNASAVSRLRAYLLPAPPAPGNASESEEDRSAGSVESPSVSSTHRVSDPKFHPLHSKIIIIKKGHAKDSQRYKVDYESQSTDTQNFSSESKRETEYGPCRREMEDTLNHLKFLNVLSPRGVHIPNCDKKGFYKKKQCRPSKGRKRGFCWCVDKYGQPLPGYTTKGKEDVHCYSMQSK

COc1ccc(-c2oc3c(CC=C(C)C)c(O[C@@H]4O[C@H](CO)[C@@H](O)[C@H](O)[C@H]4O)cc(O)c3c(=O)c2O[C@@H]2O[C@@H](C)[C@H](O)[C@@H](O)[C@H]2O)cc1 [Icariin] gave a Kd of 131 µM.
